Experimental data: PubChem BioAssay (NCI)
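Where inhibition never reached the appropriate level, the endpoint shown equals the highest concentration tested. Otherwise, values were interpolated linearly from a five-concentration, 48-hour dose response in 96-well plates. GI50 = concentration required for 50% inhibition of growth. TGI: total growth inhibition.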

Legend:
Test in all cases: inhibition of tumour cell growth, NCI panel, 48 h
HL-60(TB) leukemia = system: HL-60(TB) leukemia
RPMI-8226 leukemia = system: RPMI-8226 leukemia
SK-MEL-28 melanoma = system: SK-MEL-28 melanoma
COLO 205 colon = system: COLO 205 colon
OVCAR-3 ovarian = system: OVCAR-3 ovarian
OVCAR-5 ovarian = system: OVCAR-5 ovarian
HT29 colon = system: HT29 colon
CAKI-1 renal = system: CAKI-1 renal
HOP-62 NSCLC = system: HOP-62 NSCLC

Row | Structure (SMILES) | GI50 (HL-60(TB) leukemia) [µM] | TGI (HL-60(TB) leukemia) [µM] | GI50 (RPMI-8226 leukemia) [µM] | TGI (RPMI-8226 leukemia) [µM] | GI50 (SK-MEL-28 melanoma) [µM] | TGI (SK-MEL-28 melanoma) [µM] | GI50 (COLO 205 colon) [µM] | TGI (COLO 205 colon) [µM] | GI50 (OVCAR-3 ovarian) [µM] | TGI (OVCAR-3 ovarian) [µM] | GI50 (OVCAR-5 ovarian) [µM] | TGI (OVCAR-5 ovarian) [µM] | GI50 (HT29 colon) [µM] | TGI (HT29 colon) [µM] | GI50 (CAKI-1 renal) [µM] | TGI (CAKI-1 renal) [µM] | TGI (HOP-62 NSCLC) [µM] | GI50 (HOP-62 NSCLC) [µM]
1 | C=C(C)[C@@H]1CC[C@]2(C(=O)NC(C)=O)CC[C@]3(C)[C@H](CC[C@@H]4[C@@]5(C)CCCNC(C)(C)[C@@H]5CC[C@]43C)[C@@H]12 | 1.35 | 3.2 | 1.18 | 3.4 | 1.66 | 3.04 | 1.19 | 2.98 | 1.59 | 3.04 | 1.53 | 2.88 | 1.21 | 3.06 | 1.64 | 3.1 |  | 
2 | CC/C(=C\c1ccc(OC)cc1)c1ccc(OC)cc1 |  |  |  | > 100 |  |  |  | > 100 |  | > 100 |  | > 100 |  | > 100 |  | > 100 | > 100 | 
3 | CCOc1cc2c(cc1O)C(N)C[C@@H]1[C@@H]2CC[C@]2(C)[C@@H](O)CC[C@@H]12 (some centres undefined) |  | 46.5 |  |  |  | > 100 |  | > 100 | 44.9 | > 100 |  | > 100 |  | > 100 |  | > 100 | > 100 | 
4 | CCn1c2ccccc2c2cc(Nc3cc(C)[nH]c(=O)n3)ccc21 |  |  |  |  |  | > 100 |  | > 100 |  | > 100 |  | > 100 |  | > 100 |  | > 100 | > 100 | 
5 | O=C1C(c2c(O)[nH]c3ccc(S(=O)(=O)NCCO)cc23)=Nc2ccccc21 |  |  |  | > 100 |  | > 100 |  | > 100 |  | 18.3 |  | > 100 |  | > 100 |  | > 100 | > 100 | 
6 | O=C(O)c1ccc(N/C(=C(/C(Cl)=C(Cl)Cl)[N+](=O)[O-])n2nnc3ccccc32)cc1 |  |  |  | > 100 |  | > 100 |  | > 100 |  | > 100 |  | > 100 |  | > 100 |  | > 100 | > 100 | 
7 | O=[N+]([O-])C(C=C(n1nnc2ccccc21)n1nnc2ccccc21)=C(n1nnc2ccccc21)n1nnc2ccccc21 |  | > 100 |  | > 100 |  |  |  | > 100 |  | > 100 |  | > 100 |  | > 100 |  | > 100 | > 100 | 
8 | CC(C)(C)C1=C(Br)C(OC(=O)C(F)(F)F)(C(C)(C)C)OP1(=O)c1ccccc1 (centres undefined) |  | > 100 |  |  |  | > 100 |  | 34 |  | > 100 |  | > 100 |  | > 100 |  | 4.97 | 76.8 | 
9 | C=CCNC(=S)/N=C/C(C(=O)Nc1ccccc1C)=C(\C)O |  | > 100 |  | > 100 |  |  |  | > 100 |  | > 100 |  | > 100 |  | > 100 |  | > 100 | > 100 | 
10 | CN1CCC2(CC1)C(=NC1CCCCC1)NC(=O)N2c1ccccc1 |  | > 100 |  | > 100 |  | > 100 |  | > 100 |  |  |  | > 100 |  | > 100 |  |  | > 100 | 
11 | C=C1C(=O)OC2C3OC(C)(CCC(O)C3COC(C)=O)CC(OC(=O)/C(=C/C)COC(C)=O)C12 (centres undefined) |  |  |  | 0.339 |  | 0.431 |  | 0.246 |  | 0.983 |  | 1.12 |  | 0.521 |  | 0.39 | 10.1 | 
12 | COc1ccc(-c2n/c(=C\c3c(O)[nH]c4ccccc34)cc3c2=Nc2ccccc2-3)cc1 | 1.9 | 4.08 | 2.35 | 6.87 | 1.07 | 2.32 |  |  | 1.01 | 2.28 | 5.63 | 20.4 | 1.1 | 2.29 | 14.5 | 36.7 | 3.23 | 1.63
13 | CCNC(=S)N/N=C(\C)c1cccc(C)n1 |  | 53.6 |  |  |  | > 100 |  | > 100 |  | > 100 |  | > 100 |  | > 100 |  |  | > 100 | 
14 | COc1ccc2c(c1)CCC/C2=N\NS(=O)(=O)c1c(C)cc(C)cc1C |  |  |  |  |  | > 100 |  | 57.2 |  | > 100 |  | > 100 |  | 43.5 |  | > 100 | > 100 | 
15 | COC(=O)c1cc(/C=C\c2cc(OC)ccc2OC)ccc1OC |  |  |  | 44.5 |  | 59.7 |  | 59.7 |  | 65.8 |  | > 100 |  | > 100 |  | > 100 | 77.1 | 
16 | C=C(C)[C@@H]1CC[C@]2(CO)CC[C@]3(C)[C@H](CC[C@@H]4[C@@]5(C)CC[C@H](NCO)C(C)(C)[C@@H]5CC[C@]43C)[C@@H]12 | 1 | 2.32 | 0.934 | 2.5 | 0.894 | 1.61 | 0.898 | 1.82 | 0.88 | 1.61 | 0.85 | 1.56 |  |  | 0.882 | 1.59 | 1.74 | 0.862
17 | CC1C2(C)OCC(C#N)(C(=N)O2)C1(C#N)C#N (centres undefined) |  | 38.2 |  |  |  | 97.6 |  | 27.8 |  | 28.4 |  | 85.6 |  | 35.3 |  | 25 |  | 
18 | COCCN1C(=O)C2c3[nH]c4ccccc4c3C3CCC(C(C)(C)C)CC3C2C1=O (centres undefined) |  | 37.6 |  | 39.5 |  | 32.3 |  | 33.7 |  | 33.8 |  |  |  | 27 |  | 37.6 | 37.4 | 
19 | COc1ccc(-n2cnc3c(NC(Cc4ccccc4)C(=O)O)ncnc32)cc1 (centres undefined) |  |  |  | > 100 |  | > 100 |  | > 100 |  | > 100 |  | > 100 |  | > 100 |  | > 100 | > 100 | 
20 | CCOC(=O)/C=C/[C@@H](CC)O[Si](C(C)C)(C(C)C)C(C)C |  |  |  | 94.6 |  |  |  | > 100 |  | > 100 |  | > 100 |  | > 100 |  | > 100 | > 100 | 
21 | CC(C)=NOC(=O)Nc1cccc2c1OCO2 |  |  |  | > 100 |  | > 100 |  | > 100 |  | > 100 |  | > 100 |  | > 100 |  | > 100 | > 100 | 
22 | COC(=O)c1ccc(NCC2=C(Br)C(=O)C=CC2=O)cc1Cl |  | > 100 |  | > 100 |  | 33.6 |  | 31.6 |  | 26.8 |  | 36.7 |  | 32.6 |  | 70.6 |  | 
